Data on one compound can be found in patent US20130254944A1, “Herbicide Tolerant Soybeans and Methods of Use” (PIONEER HI BRED INTERNATIONAL INC, priority 2012, published 2013).

What all share (format): in vivo
The test system of test [1] is soybean having the Als1 mutation. Nature of the test: Greenhouse postemergence test of ALS-inhibiting herbicides, soybean with Als1 mutation. The procedure:
(§1) Soybean lines having wild type als1 & 2 genes, the Als1 mutation, the Als2 mutation, or both the Als1 and Als2 mutations were evaluated for their response to various herbicides. Two seeds from each line were planted into 4-inch pots containing Redi-Earth potting mix (Sun Gro Horticulture Canada Ltd. 52130 RR65, Seba Beach, Alberta TOE 2B0), with two replications planted for each treatment. Pots were placed in flats at 15 pots/flat, and the resulting plants were grown in a greenhouse environment supplemented with lighting (16 hr photoperiod) for the duration of the test. Selected herbicides representing the mode of action that inhibits the acetolactate synthase enzyme, also known as the acetohydroxyacid synthase enzyme, were applied postemergence to soybean when soybean plants were at the V2 growth stage, which is the stage at which the first two trifoliolate leaves were expanded.
(§2) Eleven active ingredients representing the five chemical families with herbicidal activity on the acetolactate synthase enzyme were tested. These herbicides can cause a phytotoxic response in wild type soybean plants. The five chemical families tested were sulfonylaminocarbonyltriazolinone (also known as triazolinone), imidazolinone, sulfonylurea, pyrimidinylthiobenzoate, and triazolopyrimidine. Application rates ranged from 0.5 times to eight times the currently labeled application rate for each active ingredient with spray application volume at 30 gallons/acre. The application rates tested were 0.5×, 1×, 2×, 4× and 8× the label rate for each herbicide. Herbicidal active ingredients were applied as formulated materials dispersed in water containing 0.25% nonionic surfactant (Trend® 90).
(§3) The test was evaluated by visually scoring plant phenotype 14 days after the herbicides were applied. Controls consisted of soybean plants of the same variety that received no herbicide treatments for each of all the varieties tested. Soybean response was recorded on a zero to 100 visual scale in which zero is no phytotoxic response and 100 is plant death fourteen days after the herbicides were applied. Soybean response (percent phytotoxicity) to postemergence applications of herbicides inhibiting the acetolactate synthase enzyme test results are shown in Table 1.
(§4) Results in Table 1 were evaluated using the isobole method for analyzing interactions. […] Here the biologically active agents that are being assessed for interaction (synergy) are gene mutations in soybean. The effectiveness of the genes in providing improved tolerance to ALS-inhibiting herbicides was assessed by applying increasing doses of herbicides to each soybean line with its mutation(s).
(§5) An isobole reduces a dose response surface in three dimensional space to a two dimensional plot by fixing a defined response level (e.g., 50% response). The isobole plot is a graph in the Cartesian plane with a straight line connecting the isoeffective rates of the individual components of the combination. This straight line represents expected responses for zero interactive combinations. The isoeffective rate used to create the isobole is often the EC50, the rate estimated to elicit 50% response, but other ECx values can be used. Since the isobole method is based on the potency of the components of the combination, an experimental design testing a range of rates expected to elicit the full range of responses (e.g., 0 to maximum response) is best. (Ferry et al. (2005) 2005 Conference on Applied Statistics in Agriculture Proceedings pp 33-50, Manhattan, Kans., Kansas State Univ.; Green and Streibig (1993) Herbicide Mixtures, pp 117-134 in Herbicide Bioassays, Streibig and Hudsk Eds, CRC, Boca Raton, Fla.).
(§6) Loglogistic dose response curves were fit to percent phytotoxicity response data using log 10 of dose (McCullagh and Nelder (1989) Generalized Linear Models, Chapman & Hall, London). Curves were fit using the logit link with normal errors. […]

Test [2] concerns wild type soybean. Nature of the test: Greenhouse postemergence test of ALS-inhibiting herbicides, wild type soybean. As for the experimental part:
as §1, §2, §3

For test [3], the system named is soybean having the Als2 mutation. The experiment in a line: Greenhouse postemergence test of ALS-inhibiting herbicides, soybean with Als2 mutation. The procedure: as §1, §2, §3, §4, §5, §6
Test [4] has as its system soybean having both the Als1 and Als2 mutations. Nature of the test: Greenhouse postemergence test of ALS-inhibiting herbicides and isobole analysis, soybean with Als1 and Als2 mutations. As for the experimental part:
as §1, §2, §3, §4, §5, §6

Setting [5] is: 8.75 g ai/ha postemergence at V2, scored 14 days after application.
[6] abbreviates: 17.5 g ai/ha postemergence at V2, scored 14 days after application.
Where [7] appears, read: 35 g ai/ha postemergence at V2, scored 14 days after application.
Where [8] appears, read: 70 g ai/ha postemergence at V2, scored 14 days after application.
[9] abbreviates: 140 g ai/ha postemergence at V2, scored 14 days after application.
Where [10] appears, read: rates 0.5x to 8x the label rate.

As to `CCOc1nc(F)cc2nc(S(=O)(=O)Nc3c(Cl)cccc3C(=O)OC)nn12` [Cloransulam methyl], the “Soybean response (percent phytotoxicity), Als1” value in test [1] (setting [5]), in test [1] (setting [6]), in test [1] (setting [7]), in test [1] (setting [8]) and in test [1] (setting [9]) was 0% in each case. Further, the “phytotoxic response (in words), Als1” value in test [1] (setting [10]) was “did not cause any phytotoxic response”. In addition, the “Soybean response (percent phytotoxicity), Wild type” value is reported as 0% in test [2] (setting [5]); 0% in test [2] (setting [6]); 0% in test [2] (setting [7]); 5% in test [2] (setting [8]); 15% in test [2] (setting [9]). For the same compound, the “Soybean response (percent phytotoxicity), Als2” value in test [3] (setting [5]), in test [3] (setting [6]), in test [3] (setting [7]), in test [3] (setting [8]) and in test [3] (setting [9]) was 0% each time. Further, the “phytotoxic response (in words), Als2” value in test [3] (setting [10]) was “did not cause any phytotoxic response”. Besides, the “Soybean response (percent phytotoxicity), Als1 + Als2” value in test [4] (setting [5]), in test [4] (setting [6]), in test [4] (setting [7]), in test [4] (setting [8]) and in test [4] (setting [9]) was 0% each time. Also, the “phytotoxic response (in words), Als1+Als2” value in test [4] (setting [10]) is “did not cause any phytotoxic response”.
